This is an account of results in patent publication US9549958B2, “Extracts of Cynanchum sp. and active ingredients contained therein in use of arthritis treatment” (INDUSTRIAL TECHNOLOGY RESEARCH INSTITUTE, priority 2011, dated 2017).

A short description of data set [1]: Weight changes in collagen-induced arthritis model. Conditions: various doses of antofine and regimes (Groups 1-4), i.p., rats. Type of data set: in vivo, rat. The procedure: (§1) 50 μg of a fetus bovine type II collagen (CII, Chondrex) was emulsified in a complete Freund's adjuvant (CFA, Sigma). The ankle volume was measured as the basis of a hindpaw volume. On the eighth day after the primary immune, each rat was injected with 100 μg of the collagen emulsified in IFA (Sigma) to induce arthritis. The carrier control group was i.p. injected with 2 ml/kg of 0.5% CMC rats every two days until day 21. The experimental group was […] antofine isolated from Example 1 according to the following regimes: Group 1 was i.p. injected with 3 mg/kg of antofine every two days until Day 20 and then i.p. injected with 3 mg/kg of antofine per day on Day 21˜23; Group 2 was i.p. injected with 3 mg/kg of antofine every three days until Day 20 and then i.p. injected with 3 mg/kg of antofine per day on Day 21˜23; Group 3 was i.p. injected with 2 mg/kg of antofine every two days until Day 20 and then i.p. injected with 3 mg/kg of antofine per day on Day 21˜23; Group 4 was i.p. injected with 3 mg/kg of antofine per day for 5 days, and then stop administration on the next nine days, and i.p. injected with 3 mg/kg of antofine per day on Day 21˜23.; and All rats were scarified on Day 24.

The test system of data set [2] is collagen-induced arthritis model. The data set can be described thus: Collagen-induced arthritis model, morbidity and onset. Type of data set: in vivo, rat. The procedure:
as §1

The next data set concerns TNF-α. Kind of data set: TNF-α inhibition in LPS-stimulated activated U937 cells (ELISA). Type of data set: cell-based. Particulars: Homo sapiens, U-937, Example 3. The procedure: A human myeloid leukemia cell line U937 (Rockville, Md.) was obtained from ATCC. The cell line was cultured in a RPMI 1640 medium with a 10% fetal calf serum (FCS) at 37° C., 5% CO2. The cell line maintained in exponential growth. For inducing differentiation, the cells with a starting concentration of 4×10^5 cell/ml were cultured in T150 containing 50 ng/ml PMA (Sigma) for 24 hours. Subsequently, the cells were moved to a fresh medium without PMA and cultured for 48 hours. The cells were collected with rubber policeman (Bellco Glass, Vineland, N.J.) gently scraping the medium bottle for the next step.
The activated U937 cells were seeded into a 96-well plate to form a concentration of 1.6×10^5 cell/well. The ethanol extracts of Cynanchum hancockianum in different concentrations were respectively added 10 μl to the 96-well plate. The final volume of each well was 190 μl. The plate was cultured at 37° C., 5% CO2 for 30 min. Then each well was added 2 μg/ml of lipopolysaccharide (LPS) in PBS 10 μl and cultured at 37° C. for 4 hours. […] The amount of TNF-α was analyzed by an ELISA (TNF-α duoset, R&D, Minneapolis, Minn.). […]
The activated U937 cells obtained from Example 2 were seeded into a 96-well plate to form a concentration of 1.6×10^5 cell/well. […] The amount of TNF-α was analyzed by an ELISA and cell viability was tested by MTT. […]
A general note: ELISA stands for enzyme-linked immunosorbent assay.

The IC50 is the concentration at which inhibition is half-maximal. High values mean lower potency, low ones higher potency.

Converted amounts (≈) assume the structure as drawn.

Consider `COc1ccc2c3c(c4cc(OC)c(OC)cc4c2c1)C[C@H]1CCCN1C3` [antofine, (−)-antofine], for which the Weight changes result in data set [1] was “not greatly changed”. The “Morbidities and onset of arthritis” value was “decreased morbidities and delayed onsets” in data set [2] (Group 1: 3 mg/kg i.p. every two days until Day 20, then 3 mg/kg per day on Day 21-23); “decreased morbidities and delayed onsets” in data set [2] (Group 4: 3 mg/kg i.p. per day for 5 days, stop nine days, 3 mg/kg per day on Day 21-23). In addition, the 50% inhibitory concentration (IC50) in the data set with TNF-α worked out at 7 ng/mL (≈ 0.0193 µM).
